# Test results as given in US10112929B2, “Lactams as inhibitors of rock” (BRISTOL-MYERS SQUIBB COMPANY, priority 2015, dated 2018).
# Target: ROCK2 (Homo sapiens (Human), UniProt O75116)
# Test: biochemical
# 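Further: rho kinase enzyme reaction halted with EDTA, phospho- and non-phospho peptide separated for read-out, kinase activity inhibition derived across a dose-response series, DMSO under 2%.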
# Chain of ROCK2 (O75116 whole entry, species assumed): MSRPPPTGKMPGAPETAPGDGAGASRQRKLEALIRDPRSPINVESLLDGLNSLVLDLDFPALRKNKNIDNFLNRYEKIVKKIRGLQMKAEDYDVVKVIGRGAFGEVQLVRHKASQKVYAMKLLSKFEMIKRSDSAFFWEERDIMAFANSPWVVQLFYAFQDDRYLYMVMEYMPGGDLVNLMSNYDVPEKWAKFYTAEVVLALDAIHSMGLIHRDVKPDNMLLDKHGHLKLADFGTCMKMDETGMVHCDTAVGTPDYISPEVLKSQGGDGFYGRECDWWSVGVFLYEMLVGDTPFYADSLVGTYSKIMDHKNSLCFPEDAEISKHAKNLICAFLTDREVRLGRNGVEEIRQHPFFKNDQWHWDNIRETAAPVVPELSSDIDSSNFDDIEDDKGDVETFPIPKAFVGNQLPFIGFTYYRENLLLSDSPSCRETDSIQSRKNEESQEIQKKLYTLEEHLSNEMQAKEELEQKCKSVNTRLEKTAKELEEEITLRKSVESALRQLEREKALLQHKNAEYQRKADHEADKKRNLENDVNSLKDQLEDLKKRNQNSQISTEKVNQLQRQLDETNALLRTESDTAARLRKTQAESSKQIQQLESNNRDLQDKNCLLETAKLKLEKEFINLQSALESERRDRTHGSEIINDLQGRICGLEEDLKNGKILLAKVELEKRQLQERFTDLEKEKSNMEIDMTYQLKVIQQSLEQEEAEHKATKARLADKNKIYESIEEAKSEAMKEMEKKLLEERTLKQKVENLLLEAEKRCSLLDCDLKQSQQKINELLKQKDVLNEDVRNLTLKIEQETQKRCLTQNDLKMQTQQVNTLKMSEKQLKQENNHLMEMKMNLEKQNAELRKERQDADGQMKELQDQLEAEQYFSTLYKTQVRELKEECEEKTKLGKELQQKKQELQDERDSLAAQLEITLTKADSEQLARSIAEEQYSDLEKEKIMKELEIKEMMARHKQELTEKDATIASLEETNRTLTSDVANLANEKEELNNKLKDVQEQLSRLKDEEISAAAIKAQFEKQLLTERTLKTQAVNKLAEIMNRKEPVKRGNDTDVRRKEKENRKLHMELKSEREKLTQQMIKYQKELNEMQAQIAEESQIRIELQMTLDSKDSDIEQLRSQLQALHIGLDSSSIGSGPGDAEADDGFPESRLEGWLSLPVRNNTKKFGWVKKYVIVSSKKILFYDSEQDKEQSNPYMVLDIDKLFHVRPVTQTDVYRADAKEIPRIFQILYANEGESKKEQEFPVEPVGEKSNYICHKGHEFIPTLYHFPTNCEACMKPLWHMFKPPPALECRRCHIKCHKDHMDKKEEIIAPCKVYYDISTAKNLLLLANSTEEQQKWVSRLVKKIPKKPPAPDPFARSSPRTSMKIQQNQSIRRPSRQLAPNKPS
row,IC50,Compound
1,< 10 nM,"COc1cc(NC2CCN(c3ccc(-c4cn[nH]c4)cc3)C2=O)ccc1F (single isomer, unassigned) [Example 18, 1-(4-(1H-pyrazol-4-yl)phenyl)-3-((4-fluoro-3-methoxyphenyl)amino)pyrrolidin-2-one]"
2,100 to 2200 nM,"O=C1C(Cc2ccc(F)cc2)CCN1c1ccc(-c2cn[nH]c2)cc1 (centres unmarked) [Example 98, 1-(4-(1H-pyrazol-4-yl)phenyl)-3-(4-fluorobenzyl)pyrrolidin-2-one]"
3,10 to 100 nM,"COc1cccc(NC2CCN(c3cc(F)c(-c4cn[nH]c4)cc3F)C2=O)c1 (single isomer, unassigned) [Example 353, 1-(2,5-difluoro-4-(1H-pyrazol-4-yl)phenyl)-3-((3-methoxyphenyl)amino)pyrrolidin-2-one]"
4,100 to 2200 nM,"O=C1C(Nc2cccc(OC(F)F)c2)CCN1c1ccc(-c2cn[nH]c2)cn1 (single isomer, unassigned) [Example 321, 1-(5-(1H-pyrazol-4-yl)pyridin-2-yl)-3-((3-(difluoromethoxy)phenyl)amino) pyrrolidin-2-one]"
5,10 to 100 nM,"COc1cccc(N(CCO)C2CCN(c3ccc(-c4cn[nH]c4)cc3)C2=O)c1 (centres unmarked) [Example 12, 1-(4-(1H-pyrazol-4-yl)phenyl)-3-((2-hydroxyethyl)(3-methoxyphenyl)amino)pyrrolidin-2-one]"
6,10 to 100 nM,"COc1cc(N2CCC(Nc3cccc(NS(C)(=O)=O)c3)C2=O)ccc1-c1cn[nH]c1 (centres unmarked) [Example 73, N-(3-((1-(3-methoxy-4-(1H-pyrazol-4-yl)phenyl)-2-oxopyrrolidin-3-yl)amino)phenyl)methanesulfonamide]"
7,100 to 2200 nM,"COc1cc(NC2CCN(c3cc(C)c(-c4cn[nH]c4)cn3)C2=O)ccc1F (single isomer, unassigned) [Example 209, 3-((4-fluoro-3-methoxyphenyl)amino)-1-(4-methyl-5-(1H-pyrazol-4-yl)pyridin-2-yl)pyrrolidin-2-one]"
8,10 to 100 nM,"COc1ccc2c(c1)CCN2C1CCN(c2ccc(-c3cn[nH]c3)cc2)C1=O (single isomer, unassigned) [Example 42, 1-(4-(1H-pyrazol-4-yl)phenyl)-3-(5-methoxyindolin-1-yl)pyrrolidin-2-one]"
9,100 to 2200 nM,"COc1cc(N2CCC(Nc3cccc(OC(F)(F)F)c3)C2=O)ccc1-c1cn[nH]c1 (centres unmarked) [Example 70, 1-(3-methoxy-4-(1H-pyrazol-4-yl)phenyl)-3-((3-(trifluoromethoxy)phenyl)amino)pyrrolidin-2-one]"
10,10 to 100 nM,"COc1ccc(F)cc1NC1CCN(c2ccc(-c3cn[nH]c3)cc2)C1=O (centres unmarked) [Example 5, 1-(4-(1H-pyrazol-4-yl)phenyl)-3-((5-fluoro-2-methoxyphenyl)amino)pyrrolidin-2-one]"
11,100 to 2200 nM,"COc1cccc(NC2CCN(c3ccc(-c4cn[nH]c4)c(CO)c3)C2=O)c1 (racemic) [Example 187, 1-(3-(hydroxymethyl)-4-(1H-pyrazol-4-yl)phenyl)-3-((3-methoxyphenyl)amino) pyrrolidin-2-one]"
12,10 to 100 nM,"COCc1cc(N2CCC(Nc3cccc(OC)c3)C2=O)ccc1-c1cn[nH]c1 (single isomer, unassigned) [Example 184, 1-(3-(methoxymethyl)-4-(1H-pyrazol-4-yl)phenyl)-3-((3-methoxyphenyl)amino) pyrrolidin-2-one]"
13,< 10 nM,"COc1cc(F)cc(NC2CCN(c3ccc(-c4cn[nH]c4)c(C)n3)C2=O)c1 (single isomer, unassigned) [Example 193, 3-((3-fluoro-5-methoxyphenyl)amino)-1-(6-methyl-5-(1H-pyrazol-4-yl)pyridin-2-yl)pyrrolidin-2-one]"
14,< 10 nM,"COc1nc(N2CCC(Nc3cccc(OCC4CC4)c3)C2=O)ccc1-c1cn[nH]c1 (racemic) [Example 205, 3-((3-(cyclopropylmethoxy)phenyl)amino)-1-(6-methoxy-5-(1H-pyrazol-4-yl)pyridin-2-yl)pyrrolidin-2-one]"
